# From patent US7531541B2, “Partial mGluR5 antagonists for treatment of anxiety and CNS disorders” (Vanderbilt University, priority 2005, dated 2009)
# Several values for one entry are separate records, joined by “and”; a condition that tells them apart may be missing. Identical values can stand only once.
# What was measured:
# [1] = biological target: T1, mGluR5 (Rattus norvegicus, UniProt P31424); assay: Calcium fluorescence assay (FDSS) in rat cortical astrocytes; type: cell-based; conditions: for effect on glutamate concentration response curve: 10 μM (maximally effective) compound, range of glutamate concentrations; for effect on glutamate-induced calcium response: 10 μM compound, 5 min; for effect on glutamate-induced calcium response / maximal reduction of the response to glutamate / antagonist activity across a range of concentrations / IC50: nearly maximal glutamate; for maximal inhibition relative to that of MPEP: % of maximal inhibition by MPEP; for block of MPEP-induced inhibition of the glutamate response: compound added 1 min before; for rightward shift of concentration response curve compared to MPEP: antagonism of mGluR5-mediated calcium increase; for activation of mGluR5 when added alone: compound alone; for maximal reduction of the response to glutamate: concentration response; for IC50: read-out: IC50 at inhibiting mGluR5 receptor responses; for potentiation of response to suboptimal glutamate: DFB 30 μM, CDPPB 3 μM
# T1 construct: they provide a native system that endogenously expresses high levels of mGluR5; endogenous in cells; host or cells: primary (secondary-culture) rat cortical astrocytes from Sprague Dawley pups
# T1 sequence (P31424 21-1203): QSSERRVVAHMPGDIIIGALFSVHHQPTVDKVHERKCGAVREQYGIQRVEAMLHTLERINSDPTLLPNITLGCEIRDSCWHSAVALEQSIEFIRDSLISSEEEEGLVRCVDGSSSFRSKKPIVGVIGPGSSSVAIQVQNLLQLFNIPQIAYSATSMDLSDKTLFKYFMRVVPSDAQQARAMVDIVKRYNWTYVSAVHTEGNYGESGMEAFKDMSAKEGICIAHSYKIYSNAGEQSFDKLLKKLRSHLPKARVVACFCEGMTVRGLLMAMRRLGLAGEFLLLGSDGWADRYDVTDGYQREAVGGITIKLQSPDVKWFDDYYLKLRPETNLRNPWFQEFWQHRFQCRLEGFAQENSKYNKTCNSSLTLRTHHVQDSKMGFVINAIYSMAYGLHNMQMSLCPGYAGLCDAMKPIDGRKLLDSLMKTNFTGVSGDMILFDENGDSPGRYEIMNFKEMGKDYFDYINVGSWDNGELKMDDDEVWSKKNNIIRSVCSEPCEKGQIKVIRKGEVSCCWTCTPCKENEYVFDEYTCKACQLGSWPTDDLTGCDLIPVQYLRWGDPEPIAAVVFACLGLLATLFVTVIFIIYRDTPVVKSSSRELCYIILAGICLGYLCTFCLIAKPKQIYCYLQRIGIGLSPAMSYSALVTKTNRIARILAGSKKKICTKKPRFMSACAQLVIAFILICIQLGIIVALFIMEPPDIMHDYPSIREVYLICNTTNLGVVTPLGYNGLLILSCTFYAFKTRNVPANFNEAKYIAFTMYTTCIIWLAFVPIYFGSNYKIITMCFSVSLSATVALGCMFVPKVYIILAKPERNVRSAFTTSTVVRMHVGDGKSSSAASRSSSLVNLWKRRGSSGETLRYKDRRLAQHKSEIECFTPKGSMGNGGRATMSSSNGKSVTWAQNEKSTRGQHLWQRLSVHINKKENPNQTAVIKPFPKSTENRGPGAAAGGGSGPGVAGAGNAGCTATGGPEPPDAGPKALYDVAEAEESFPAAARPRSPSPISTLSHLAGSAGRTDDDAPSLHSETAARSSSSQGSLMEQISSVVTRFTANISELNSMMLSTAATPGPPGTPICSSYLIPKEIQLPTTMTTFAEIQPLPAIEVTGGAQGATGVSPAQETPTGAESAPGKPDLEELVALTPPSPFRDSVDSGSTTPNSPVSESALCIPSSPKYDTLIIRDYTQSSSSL
# Procedure: Metabotropic glutamate receptor 5induced phosphorylation of extracellular signal-regulated kinase in astrocytes depends on transactivation of the epidermal growth factor receptor. J Neurosci 21:9619-28). In brief, neocortices from 2-4 day old Sprague Dawley rat pups were dissected and dissociated in DMEM by trituration with 1 ml pipette tips. The cells were then centrifuged and resuspended in DMEM (containing 1 mM sodium pyruvate, 2 mM L-glutamine, PenStrep) supplemented with 10% FBS in T75 tissue culture flasks; the medium was changed the next day. Cell cultures were maintained at 37° C. in an atmosphere of 95% air/5% CO2 for 6-8 days. Cells were shaken overnight (280-310 rpm) to remove oligodendrocytes and microglia.
# Secondary astrocytes were trypsinzed and replated into poly-D-Lysine coated 384 well plates (Greiner) at 10K cells/well in 20 μL growth medium (DMEM containing 10% FBS, 20 mM HEPES, 2 mM L-glutamine and antibiotic/antimycotic). The second day the medium was changed to growth medium and G-5 supplement (Invitrogen) containing EGF (10 ng/ml), basic fibroblast growth factor (5 ng/ml), insulin (5 μg/ml), and other factors. The cells were nearly confluent within 2 days and resembled the polygonal astrocytic appearance in vivo. The fourth day, approximately 20 hours before experiments, the medium was changed to glutamine free DMEM containing 5% dialyzed FBS, 20 mM HEPES and antibiotic/antimycotic. On day five medium was removed from the plate and the cells incubated with 20 μL of 1 μM Fluo-4AM (Molecular Probes) in assay buffer (Hank's balanced salt solution, 20 mM HEPES and 2.5 mM Probenecid) for 1 h at 37° C. Dye was removed and 20 μL assay buffer was added. Ca2+ flux was measured using the Functional Drug Screening System (FDSS6000 by Hamamatsu).
# Compounds were diluted into assay buffer to a 5× stock which was applied to the cells. For neutral measurements, cells were preincubated with the test compounds for 1 min, potentiator or antagonist was added, and the cells incubated for an additional 5 min. Cells were then stimulated for 2 min with an appropriate concentration of glutamate. For potentiator and antagonist measurements, cells were preincubated with the test compounds for 5 min and then stimulated for 2 min with an appropriate concentration of glutamate. Data were collected at ¼ Hz during the preincubation period and at 1 Hz during the glutamate addition phase of the experiment.
# Raw data were normalized in a three step process: (1) Cell number and non-uniform illumination/imaging were controlled for based on the initial readings for the well, (2) the signal amplitude for the data point immediately preceding the agonist addition was subtracted from each point on the trace, (3) data were normalized to the maximal response for each experiment. Concentration response curves were generated using Prism 4.0 (GraphPad).
# [2] = biological target: T2, rat mGluR5 (allosteric MPEP site) (Rattus norvegicus, UniProt P31424); assay: [3H]methoxyPEPy radioligand binding assay, membranes of HEK293A cells stably expressing rat mGluR5; conditions: for Ki: 2 nM [3H]methoxyPEPy, 60 min room temperature, rat mGluR5 HEK293A membranes, read-out: Ki, displacement of [3H]methoxyPEPy binding; for inhibition of binding of [3H]methoxyPEPy to mGluR5 membranes: extent of displacement, in words
# T2 construct: expressed in transfected cells
# T2 sequence (P31424 21-1203): as above
# Procedure: FIG. 3. […] Samples were filtered through glass fiber filters and washed extensively. […] Concentration response curves were generated from the means of three separate experiments. Error bars represent SEM.
# Membranes were prepared from HEK293A cells stably expressing rat mGluR5. Compounds were diluted into assay buffer (50 mM Tris/0.9% NaCl, pH 7.4) to a 5× stock and 20 μL test compound added to each well of a 96 well assay plate. 60 μL aliquots of membranes diluted in assay buffer (10 μg/well) were added to each well. 20 μL [3H]methoxyPEPy (2 nM final concentration in assay buffer) was added and the reaction incubated at room temperature for 60 min with shaking. After the incubation period, the membrane-bound ligand was separated from free ligand by filtration through glass-fiber 96 well filter plates (Unifilter-96, GF/B by Perkin Elmer). The contents of each well was transferred simultaneously to the filter plate and washed 4 times with assay buffer (Brandel Cell Harvester). 30 μL scintillation fluid was added to each well and the membrane-bound radioactivity determined by scintillation counting (TopCount by Perkin-Elmer).
# [3] = biological target: T3, mGluR5 (Homo sapiens, UniProt P41594); conditions: recombinant CHO cells, Published US Application 2001/0056084; cited from earlier work
# T3 construct: host or cells: CHO cells transfected with mGluR5 (earlier work)
# T3 sequence (P41594 21-1212): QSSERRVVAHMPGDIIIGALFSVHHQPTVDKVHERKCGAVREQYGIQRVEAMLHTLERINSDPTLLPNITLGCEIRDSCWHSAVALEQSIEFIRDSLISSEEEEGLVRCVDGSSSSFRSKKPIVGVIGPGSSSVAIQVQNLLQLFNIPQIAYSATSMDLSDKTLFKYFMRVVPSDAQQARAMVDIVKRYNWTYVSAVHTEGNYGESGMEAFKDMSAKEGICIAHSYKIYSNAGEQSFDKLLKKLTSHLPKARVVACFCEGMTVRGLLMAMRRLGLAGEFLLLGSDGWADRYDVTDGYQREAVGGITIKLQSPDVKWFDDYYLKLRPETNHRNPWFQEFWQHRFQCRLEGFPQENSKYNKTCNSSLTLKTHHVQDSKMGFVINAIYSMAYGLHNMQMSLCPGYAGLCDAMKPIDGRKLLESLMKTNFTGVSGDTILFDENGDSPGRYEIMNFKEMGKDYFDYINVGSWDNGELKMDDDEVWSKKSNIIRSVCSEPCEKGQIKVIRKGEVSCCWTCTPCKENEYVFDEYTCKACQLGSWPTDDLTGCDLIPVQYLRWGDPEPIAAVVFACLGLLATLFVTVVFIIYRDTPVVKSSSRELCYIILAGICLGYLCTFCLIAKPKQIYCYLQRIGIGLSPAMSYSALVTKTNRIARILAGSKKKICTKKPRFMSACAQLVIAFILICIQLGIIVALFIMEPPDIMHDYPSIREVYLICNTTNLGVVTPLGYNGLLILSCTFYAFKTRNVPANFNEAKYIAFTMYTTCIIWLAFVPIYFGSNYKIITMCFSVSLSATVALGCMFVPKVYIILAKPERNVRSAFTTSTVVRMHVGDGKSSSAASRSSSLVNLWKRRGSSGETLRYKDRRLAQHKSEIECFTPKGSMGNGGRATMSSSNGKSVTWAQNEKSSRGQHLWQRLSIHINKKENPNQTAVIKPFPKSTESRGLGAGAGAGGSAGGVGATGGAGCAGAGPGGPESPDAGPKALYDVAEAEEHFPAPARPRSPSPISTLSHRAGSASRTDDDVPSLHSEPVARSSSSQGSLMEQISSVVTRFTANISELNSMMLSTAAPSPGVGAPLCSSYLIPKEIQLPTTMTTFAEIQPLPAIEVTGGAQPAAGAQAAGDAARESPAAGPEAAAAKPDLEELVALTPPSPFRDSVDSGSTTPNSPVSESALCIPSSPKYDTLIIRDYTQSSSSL
# [4] = tested on: mGluR5 receptor responses in STN neurons; assay: Whole-cell electrophysiology in STN neurons of rat midbrain slices (DHPG-induced depolarization); type: cell-based
# [5] = 5MPEP 3, 10, 30 μM on MPEP concentration response
molecule,measurement,setting,value
3-(6-Methylpyridin-2-ylethynyl)-5-bromopyridine [Br-5MPEPy],effect on glutamate concentration response curve,[1],rightward and partial downward shift
same,effect on glutamate-induced calcium response,[1],partially inhibited
same,maximal inhibition relative to that of MPEP,[1],approximately 50%
same,block of MPEP-induced inhibition of the glutamate response,[1]; MPEP 50 nM,only partially blocked
same,rightward shift of concentration response curve compared to MPEP,[1],approximately 10 fold
same,activation of mGluR5 when added alone,[1],do not partially activate
same,maximal reduction of the response to glutamate,[1],approximately 50%
same,antagonist activity across a range of concentrations,[1],partial antagonist activity
same,IC50,[1],~300 nM
same,Ki,[2],182 ± 50 nM
same,inhibition of binding of [3H]methoxyPEPy to mGluR5 membranes,[2],fully inhibited
"Cc1ccc(C#Cc2ccccc2)nc1 [5MPEP, 5-methyl-2-phenylethynyl-pyridine, reference compound]",inhibition of mGluR5 receptor responses,[3],completely inactive
same,effect on glutamate-induced calcium response,[1],no inhibitory effect
same,effect on mGluR5 response to glutamate alone,"[1]; 5MPEP 30 μM, suboptimal glutamate",does not alter
same,block of allosteric potentiator responses to DFB and CDPPB,"[1]; 5MPEP 30 μM, DFB 30 μM or CDPPB 3 μM, suboptimal glutamate",completely blocks
same,"Schild regression slope, 5MPEP versus MPEP",[1]; [5],1.076±0.0094 and 1.076±0.01
same,Schild x-intercept,[1]; [5],−6.249
same,block of MPEP-induced inhibition of the glutamate response,[1]; MPEP 50 nM,fully blocked
same,Ki,"[1]; extrapolated from Schild regression, read-out: Ki from Schild analysis (x-intercept)",560 nM
same,DHPG-induced depolarization in presence of CDPPB and 5MPEP,[4],7.05±0.82 mV
same,DHPG-induced depolarization in presence of MPEP and 5MPEP,[4],14.28±2.1 mV
same,effect on membrane potential of STN neurons,[4],no effect
"N#Cc1cccc(C(=O)Nc2cc(-c3ccccc3)nn2-c2ccccc2)c1 [CDPPB, 3-cyano-N-(I,3-diphenyl-1 H-pyrazol-5-yl)benzamide, reference compound]",potentiation of response to suboptimal glutamate,[1],potentiated
same,DHPG-induced depolarization in presence of CDPPB,[4]; DHPG 10 μM + CDPPB 10 μM,13.39±1.66 mV
"Fc1cccc(C=NN=Cc2cccc(F)c2)c1 [DFB, 3,3′-di fluorobenzaldazine, reference compound]",potentiation of response to suboptimal glutamate,[1],potentiated
N[C@H](C(=O)O)c1cc(O)cc(O)c1 [DHPG],depolarization of STN neurons,[4]; DHPG 10 μM alone (submaximal),6.89 ± 1.22 mV
same,depolarization of STN neurons,"[4]; DHPG 100 μM alone, TTX 500 nM",14.82 ± 2.21 mV
"COc1cccc(C#Cc2ccc(C)cn2)c1 [M-5MPEP, 2-(3-Methoxyphenylethynyl)-5-methylpyridine]",effect on glutamate concentration response curve,[1],rightward and partial downward shift
same,effect on glutamate-induced calcium response,[1],partially inhibited
same,maximal inhibition relative to that of MPEP,[1],approximately 50%
same,block of MPEP-induced inhibition of the glutamate response,[1]; MPEP 50 nM,only partially blocked
same,rightward shift of concentration response curve compared to MPEP,[1],approximately 10 fold
same,activation of mGluR5 when added alone,[1],do not partially activate
same,maximal reduction of the response to glutamate,[1],approximately 50%
same,antagonist activity across a range of concentrations,[1],partial antagonist activity
same,IC50,[1],~300 nM
same,Ki,[2],145 nM
same,inhibition of binding of [3H]methoxyPEPy to mGluR5 membranes,[2],fully inhibited
"Cc1cccc(C#Cc2ccccc2)n1 [MPEP, 2-methyl-6-(phenylethynyl)-pyridine, reference compound]",effect on glutamate-induced calcium response,[1],fully blocked
same,inhibition of calcium response to nearly maximal glutamate,[1]; MPEP 50 nM,robust inhibition
same,DHPG-induced depolarization in presence of MPEP,[4]; DHPG 100 μM + MPEP 10 μM,6.15+0.82 mV
Brc1ccc(C#Cc2ccccc2)nc1.Cl [YP260],partial antagonist activity (FIG. 11),[1]; similarly to the figures above,partial activities
